Source: patent publication US20260144875A1, “COMPOSITIONS AND METHODS FOR CROSSLINKING STRUCTURAL PROTEINS” (ADS Therapeutics LLC, priority 2022, published 2026)
Converted amounts (≈) assume the structure as drawn.

Experiments:
porcine corneas [1] = assay: Ex vivo RTB-UVA crosslinking, static stress-strain, without de-epithelialization; conditions: intact porcine eyes, corneas not de-epithelialized; RTB formulations in MCT or F6H8; UVA radiation
Experimental: Starting 5 minutes before the treatment, 0.1% riboflavin tetrabutyrate (RTB) photosensitizer solution (10 mg riboflavin tetrabutyrate in 10 mL MCT or F6H8 or a combination thereof) is dropped on the treated strips and MCT or F6H8 or combination solution is dropped on the control strips at 5-minute intervals. Ultraviolet A irradiation (370 nm) is applied using 2 double UVA diodes (Roithner Lasertechnik) with an irradiance of 3 mW/cm2 at a distance of 1.0 cm from the cornea for 30 minutes. This is equal to a dose of 5.4 J/cm^2. The parameters of exposure are chosen according to the treatment procedure used in keratoconus patients. Three 1.3 V accumulators are used as a power generator. […]
(§1) The porcine corneal strips are clamped horizontally at a distance of 8.0 mm between the jaws of a commercially available microcomputer-controlled biomaterial tester (Minimat, Rheometric Scientific GmbH. To include the physiological stress range, a prestress of 5×10^3 Pa (1 Pa=1 N/m2) is used, which requires a force of 20 mN in porcine corneas. The strain is then increased linearly with a velocity of 1.5 mm min-1, and the stress is measured up to 2×10^5 Pa. The stress-strain values are fitted by an exponential function σ=A exp (BX) using the SPSS-calculation program (SPSS GmbH Software, Munich). […]

[2] = Solubility of RTB in MCT, F6H8 or mixed solvents, HPLC; assay type: physicochemical; conditions: 25° C.
Experimental: Solubility of riboflavin tetrabutyrate (RTB) was tested in medium chain triglycerides (MCT), F6H8, or mixtures of MCT/F6H8 at room temperature, and in F6H8 at 100° C. Solubility was analyzed as in Example 1a.

[3] = Saturated aqueous solubility of RTB in PBS with or without HP-β-CD, HPLC; assay type: physicochemical
Experimental: Solubility of riboflavin tetrabutyrate (RTB) was tested in PBS solution, with or without 10% hydroxypropyl-beta-cyclodextrin (HP-β-CD) as solubilizer, at varying pH. For each formulation, 5 mg of RTB was added to 5 mL of pH-adjusted PBS containing 10% HP-β-CD at 25° C., and mixed well. Solubility was analyzed as in Example 1a.

porcine corneas [4] = assay: Ex vivo study (Dresden method), RTB-UVA crosslinking, static stress-strain, de-epithelialized corneas; conditions: de-epithelialized porcine corneal strips; 0.1% RTB in MCT or F6H8 or combination; UVA 370 nm, 3 mW/cm2, 30 minutes
Experimental: Fresh porcine cadaver eyes with intact epithelia and clear corneas are retrieved from the local slaughterhouse within 2 to 5 hours post-mortem. The eyes are de-epithelialized mechanically, removing the corneoscleral ring with scissors. […] Because of the natural thickness of the porcine cornea, only 1 corneal strip with clearly cut perpendicular edges could be prepared properly from each eye. Half of the corneas are treated with RTB-UVA irradiation, and half are used as untreated controls. Using ultrasound pachymetry (Pachette, Technomed), the central corneal thickness is determined in the eyes. […]
as §1, with “Munich). Young's modulus (E) is calculated for 4%, 6%, and 8% strain as the gradient of the stress-strain graph (E=dσ/dε=A×B exp (B×ε).” for “Munich).”

[5] = Stability of riboflavin tetrabutyrate in organic solvents; assay type: physicochemical; conditions: RTB
Excerpt: The stability of riboflavin tetrabutyrate (RTB) in various solvents was investigated. Using similar sample analysis methods described in Examples 1a-1c, the stability of RTB in formulations of MCT, F6H8, and combinations were monitored at various temperatures.

[6] = Sample X1, 0.2%, MCT 100%, F6H8 0%, 2-8° C.
[7] = Sample X2, 0.2%, MCT 100%, F6H8 0%, 25° C.
[8] = Sample X3, 0.2%, MCT 100%, F6H8 0%, 40° C.
[9] = Sample X4, 0.1%, MCT 70%, F6H8 30%, 2-8° C.
[10] = Sample X5, 0.1%, MCT 70%, F6H8 30%, 25° C.
[11] = Sample X6, 0.1%, MCT 70%, F6H8 30%, 40° C.
[12] = Sample X7, 0.1%, MCT 50%, F6H8 50%, 2-8° C.
[13] = Sample X8, 0.1%, MCT 50%, F6H8 50%, 25° C.
[14] = Sample X9, 0.1%, MCT 50%, F6H8 50%, 40° C.

## CCCC(=O)OC[C@@H](OC(=O)CCC)[C@@H](OC(=O)CCC)[C@H](Cn1c2nc(=O)[nH]c(=O)c-2nc2cc(C)c(C)cc21)OC(=O)CCC [RTB, (2R,3S,4S)-5-(7,8-dimethyl-2,4-dioxo-3,4-dihydrobenzo[g]pteridin-10(2H)-yl) pentane-1,2,3,4-tetrayl tetrabutyrate]
Porcine corneas [1]
  stress using strain, treated vs untreated corneas: greater in the treated corneas
[2]; Sample B2, MCT 100%, F6H8 0%
  Solubility: 3133 ng/mL (≈ 4.77 µM)
[2]; Sample B3, MCT 20%, F6H8 80%
  Solubility: 316 ng/mL (≈ 0.481 µM)
[2]; Sample B4, MCT 50%, F6H8 50%
  Solubility: 1124 ng/mL (≈ 1.71 µM)
[2]; Sample B5, MCT 70%, F6H8 30%
  Solubility: 1582 ng/mL (≈ 2.41 µM)
[3]; Sample C1, 25° C., HP-β-CD 10%, pH 5.0
  Solubility: 8 ng/mL (≈ 0.0122 µM)
[3]; Sample C2, 25° C., HP-β-CD 10%, pH 5.5
  Solubility: 3 ng/mL (≈ 0.00457 µM)
[3]; Sample C3, 25° C., HP-β-CD 10%, pH 6.0
  Solubility: 4 ng/mL (≈ 0.00609 µM)
[3]; Sample C4, 25° C., without HP-β-CD, pH 5.0
  Solubility: 8 ng/mL (≈ 0.0122 µM)
[3]; Sample C5, 25° C., without HP-β-CD, pH 5.5
  Solubility: 1 ng/mL (≈ 0.00152 µM)
[3]; Sample C6, 25° C., without HP-β-CD, pH 6.0
  Solubility: 2 ng/mL (≈ 0.00305 µM)
Porcine corneas [4]
  stress using strain, treated vs untreated corneas: greater in the treated corneas
[5]; [6]
  Appearance (clear/precip.) 0 hr: clear
  Conc. 0 hr: 2.055, mg/mL
  Appearance (clear/precip.) 1 Month: clear
  Conc. 1 Month: 1.832, mg/mL
  Appearance (clear/precip.) 14 days: clear
  Conc. 14 days: 1.837, mg/mL
[5]; [7]
  Appearance (clear/precip.) 0 hr: clear
  Conc. 0 hr: 2.055, mg/mL
  Appearance (clear/precip.) 1 Month: clear
  Conc. 1 Month: 1.817, mg/mL
  Appearance (clear/precip.) 14 days: clear
  Conc. 14 days: 1.888, mg/mL
[5]; [8]
  Appearance (clear/precip.) 0 hr: clear
  Conc. 0 hr: 2.055, mg/mL
  Appearance (clear/precip.) 1 Month: clear
  Conc. 1 Month: 1.833, mg/mL
  Appearance (clear/precip.) 14 days: clear
  Conc. 14 days: 1.958, mg/mL
[5]; [9]
  Appearance (clear/precip.) 0 hr: clear
  Conc. 0 hr: 1.077, mg/mL
  Appearance (clear/precip.) 1 Month: clear
  Conc. 1 Month: 0.960, mg/mL
  Appearance (clear/precip.) 14 days: clear
  Conc. 14 days: 1.015, mg/mL
[5]; [10]
  Appearance (clear/precip.) 0 hr: clear
  Conc. 0 hr: 1.077, mg/mL
  Appearance (clear/precip.) 1 Month: clear
  Conc. 1 Month: 0.953, mg/mL
  Appearance (clear/precip.) 14 days: clear
  Conc. 14 days: 1.012, mg/mL
[5]; [11]
  Appearance (clear/precip.) 0 hr: clear
  Conc. 0 hr: 1.077, mg/mL
  Appearance (clear/precip.) 1 Month: clear
  Conc. 1 Month: 0.962, mg/mL
  Appearance (clear/precip.) 14 days: clear
  Conc. 14 days: 1.027, mg/mL
[5]; [12]
  Appearance (clear/precip.) 0 hr: clear
  Conc. 0 hr: 1.123, mg/mL
  Appearance (clear/precip.) 1 Month: precip.
  Conc. 1 Month: 0.848, mg/mL
  Appearance (clear/precip.) 14 days: precip.
  Conc. 14 days: 0.976, mg/mL
[5]; [13]
  Appearance (clear/precip.) 0 hr: clear
  Conc. 0 hr: 1.123, mg/mL
  Appearance (clear/precip.) 1 Month: clear
  Conc. 1 Month: 0.993, mg/mL
  Appearance (clear/precip.) 14 days: clear
  Conc. 14 days: 1.056, mg/mL
[5]; [14]
  Appearance (clear/precip.) 0 hr: clear
  Conc. 0 hr: 1.123, mg/mL
  Appearance (clear/precip.) 1 Month: clear
  Conc. 1 Month: 0.984, mg/mL
  Appearance (clear/precip.) 14 days: clear
  Conc. 14 days: 1.054, mg/mL
